{"source": "patent US5830851A", "about": "(Affymax Technologies N.V., priority 1995, dated 1998)", "key": {"[1]": {"target": "T1, murine receptor (FDC-P1/ER cells) (Mus musculus, UniProt P14753)", "T1 construct": "expressed in transfected cells; host or cells: FDC-P1 (murine bone marrow derived cell line)", "T1 sequence (P14753 25-507)": "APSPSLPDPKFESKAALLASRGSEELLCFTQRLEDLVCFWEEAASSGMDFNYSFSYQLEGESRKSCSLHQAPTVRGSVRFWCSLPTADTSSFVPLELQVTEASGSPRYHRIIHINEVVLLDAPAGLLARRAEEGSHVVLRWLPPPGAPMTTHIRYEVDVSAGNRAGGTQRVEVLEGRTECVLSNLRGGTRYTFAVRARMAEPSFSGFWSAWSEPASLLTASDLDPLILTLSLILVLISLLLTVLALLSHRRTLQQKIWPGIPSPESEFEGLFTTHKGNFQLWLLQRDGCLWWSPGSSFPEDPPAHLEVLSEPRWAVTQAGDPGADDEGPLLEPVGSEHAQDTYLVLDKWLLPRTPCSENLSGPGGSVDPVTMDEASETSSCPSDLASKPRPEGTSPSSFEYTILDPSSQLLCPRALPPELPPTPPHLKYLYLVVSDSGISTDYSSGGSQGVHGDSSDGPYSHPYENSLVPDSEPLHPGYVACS", "experiment": "Peptide dependent growth of the EPO-responsive cell line FDC-P1/ER (thymidine incorporation)", "format": "cell-based", "protocol": "Sample Preparation: Peptides were resuspended in DMSO as a 1×10^-2 M stock solution and serially diluted in 10-fold increments to generate the following 100× solutions: [formula]\nTwo μl of each stock dilution was added to a cell well as described below in a total volume of 200 μl to generate final concentrations as follows: [formula]\nCells are counted and resuspended at a concentration of 800,000 cells/ml. Approximately forty thousand cells (50μ) are added to each well of a 96 well microtiter plate. Peptide is added to each well in triplicate. A standard dose response determination is run with each series of peptides. After a forty-two hr incubation (≈2 doubling), each well is pulsed with 1 μCi/well Thymidine. Cells are incubated an additional six hr at which time cells are harvested and counted to assess thymidine incorporation as an indicator of cell proliferation."}, "[2]": {"tested_on": "human peripheral blood mononuclear cells", "experiment": "Colony assay, human peripheral blood", "format": "cell-based", "method": "(§1) A ten milliliter sample of peripheral blood was obtained from a healthy individual in a standard sterile heparin vacutainer tube. Murine bone marrow was obtained from the femurs of approximately 10 mice per experiment. All reagents were obtained from Stem Cell Technologies Inc. (Vancouver, Canada).\n(§2) a. Experimental Protocol: Briefly, a nucleated cell count was performed to establish the number and concentration of nucleated cells in the original sample. In the case of peripheral blood, the sample is subjected to centrifugation through a Ficoll-Hypaque (1.077 g per ml) gradient at 400 g for 30 minutes at room temperature. Mononuclear cells at the interface of the Ficoll-Hypaque solution are carefully removed and diluted to a total volume of about 10 ml. The cells obtained from murine bone marrow or human peripheral blood were collected by centrifugation and the supernatant was decanted. The pelleted cells were resuspended in fresh medium and subjected to collection as described above. The washed cells were diluted in Iscove's medium/2% fetal bovine serum to the following concentration for plating:\nCells were added to methyl cellulose per directions of the manufacturer. […] Equivalent cell numbers were plated in \"Complete\" methylcellulose medium to assess maximal colony formation. A control plate was run with each assay minus EPO and peptide to determine background colony formation. […]"}, "murine bone marrow cells": {"tested_on": "murine bone marrow cells", "experiment": "Colony assay, murine bone marrow", "format": "cell-based", "settings": "EPO", "method": "as §1, §2\nCells were added to methyl cellulose per directions of the manufacturer. […] Equivalent cell numbers were plated in \"Complete\" methylcellulose medium to assess maximal colony formation. A control plate was run with each assay minus EPO and peptide to determine background colony formation. Colonies were scored after both 10 days and 18 days of incubation."}, "FDCP-1/muER cells": {"tested_on": "FDCP-1/muER cells", "experiment": "Peptide-induced initiation of cell cycle measured by DNA content", "format": "cell-based, murine", "settings": "10 U/ml EPO, ten hours postinduction", "method": "1. Experimental Protocol: FDCP-1/muER cells were grown to stationery phase≈3.0×10^6 cells/ml. […] Three million cells were collected at the following time points: 0, 6, 8, 10, and 12 hr. (see, FIG. 15). Cells were washed twice in cold PBS and fixed by resuspending the cell pellet in 100 μl of cold PBS followed by 900 μl of cold 70% ethanol. Cells were stained with 50 μg/ml of propidium iodine and fluorescence was measured on FACS Scan Flow cytometer. The percentage of cells in each phase was measured using the SOBR model of CellFIT software, by Becton Dickinson."}, "[3]": {"settings": "set up 2/10/94, scored 2/23/94, EPO 3U/ml"}, "[4]": {"settings": "set up 2/10/94, scored 2/23/94, EPO (METHOCULT)"}, "[5]": {"settings": "set up 2/10/94, scored 3/4/94, EPO 3U/ml"}, "[6]": {"settings": "set up 2/10/94, scored 3/4/94, EPO (METHOCULT)"}, "[7]": {"settings": "Table 14, 1/28/94 experiment, scored 2/10/94"}, "[8]": {"settings": "Table 14, 1/28/94 experiment, scored 2/21/94"}, "[9]": {"settings": "Table 15, 2/21/94 experiment, scored 3/1/94"}, "[10]": {"settings": "Table 15, 2/21/94 experiment, scored 3/14/94"}}, "note": "Residues, ends and D or L forms follow the SMILES beside them."}
{"molecule": "CC(C)C[C@@H]1NC(=O)[C@@H]2CCCN2C(=O)CNC(=O)[C@H](Cc2ccccc2)NC(=O)[C@H](Cc2c[nH]cn2)NC(=O)[C@@H](NC(=O)[C@H](CO)NC(=O)[C@@H](N)Cc2ccc(O)cc2)CSSC[C@@H](C(N)=O)NC(=O)[C@H](C(C)C)NC(=O)[C@H](Cc2c[nH]c3ccccc23)NC(=O)[C@H]([C@@H](C)O)NC1=O", "note": "[RWJ 61477] (HELM PEPTIDE1{Y.S.C.H.F.G.P.L.T.W.V.C.[am]}$PEPTIDE1,PEPTIDE1,3:R3-12:R3$$$V2.0)", "values": [{"measurement": "EC50", "setting": "[1]", "value": 1000, "unit": "nM"}]}
{"molecule": "EPO: Erythropoietin, a glycoprotein hormone with 165 amino acids; recombinant standard", "values": [{"measurement": "CFU-E", "setting": "[2]; [3]", "value": 7}, {"measurement": "MBFU-E", "setting": "[2]; [3]", "value": 7}, {"measurement": "CFU-E", "setting": "[2]; [4]", "value": 11}, {"measurement": "MBFU-E", "setting": "[2]; [4]", "value": 25}, {"measurement": "CFU-E", "setting": "[2]; [5]", "value": 4}, {"measurement": "CFU-GM", "setting": "[2]; [5]", "value": 3}, {"measurement": "MBFU-E", "setting": "[2]; [5]", "value": 7}, {"measurement": "PBFU-E", "setting": "[2]; [5]", "value": 7}, {"measurement": "CFU-E", "setting": "[2]; [6]", "value": 1}, {"measurement": "CFU-GM", "setting": "[2]; [6]", "value": 9}, {"measurement": "MBFU-E", "setting": "[2]; [6]", "value": 11}, {"measurement": "PBFU-E", "setting": "[2]; [6]", "value": 13}, {"measurement": "BFU-E colony-forming cell numbers", "setting": "murine bone marrow cells; [7]", "value": 5}, {"measurement": "CFU-E colony-forming cell numbers", "setting": "murine bone marrow cells; [7]", "value": 23}, {"measurement": "CFU-GM colony-forming cell numbers", "setting": "murine bone marrow cells; [7]", "value": 3}, {"measurement": "BFU-E colony-forming cell numbers", "setting": "murine bone marrow cells; [8]", "value": 30}, {"measurement": "CFU-E colony-forming cell numbers", "setting": "murine bone marrow cells; [8]", "value": 0}, {"measurement": "CFU-GM colony-forming cell numbers", "setting": "murine bone marrow cells; [8]", "value": 3}, {"measurement": "BFU-E colony-forming cell numbers", "setting": "murine bone marrow cells; [9]", "value": 3}, {"measurement": "CFU-E colony-forming cell numbers", "setting": "murine bone marrow cells; [9]", "value": 3}, {"measurement": "CFU-GM colony-forming cell numbers", "setting": "murine bone marrow cells; [9]", "value": "> 10"}, {"measurement": "CFU-E colony-forming cell numbers", "setting": "murine bone marrow cells; [10]", "value": 0}, {"measurement": "CFU-GM colony-forming cell numbers", "setting": "murine bone marrow cells; [10]", "value": 26}, {"measurement": "MBFU-E colony-forming cell numbers", "setting": "murine bone marrow cells; [10]", "value": 0}, {"measurement": "PBFU-E colony-forming cell numbers", "setting": "murine bone marrow cells; [10]", "value": 10}, {"measurement": "cells in S phase", "setting": "FDCP-1/muER cells", "value": "approximately 45%"}]}
